# BindingDB's records for doi:10.7270/Q26W98HW (Burnham Center For Chemical Genomics, 2009)
# Target: Eukaryotic translation initiation factor 4H (Homo sapiens, UniProt Q15056)
# Assay: human eIF4H binding inhibitors, primary screen, translation initiation inhibitor project, biochemical, uHTS, fluorescence polarization (AID 2012)
row,SMILES,IC50
1,O=C(O)c1ccc(N=NCc2cc3c(cc2[N+](=O)[O-])OCO3)cc1,21.8 µM
2,COc1ccc2c(c1)=C(NNC(=O)Cc1cccs1)C(=O)N=2,11 µM
3,"CCn1c(=NC(=O)c2ccc(-n3c(O)ccc3O)cc2)sc2c(OC)ccc(OC)c21 [4-[2,5-bis(oxidanylidene)pyrrolidin-1-yl]-N-(3-ethyl-4,7-dimethoxy-1,3-benzothiazol-2-ylidene)benzamide]",14.7 µM
4,"CC1(C)Oc2ccc3ccc(=O)oc3c2C(CN=O)=C1Cl [9-chloro-2-keto-8,8-dimethyl-pyrano[2,3-f]chromene-10-carbaldehyde oxime]",100 µM
5,COc1cc(C)cc(C(=O)O)c1C1C(=O)C(=O)c2c(O)cccc2C1=O (centres undefined) [MLS000877007],5.43 µM
6,O=C1N=c2ccccc2=C1NNC(=O)c1cc(-c2cccs2)n[nH]1 [N'-(2-oxoindol-3-yl)-5-thiophen-2-yl-1H-pyrazole-3-carbohydrazide],11.5 µM
7,CC1=NC(=O)NC(c2ccco2)C1C(=O)OC(C)C (centres undefined) [SMR000120838],34.7 µM
8,"COc1ccc(CN=Nc2nc(O)c(CC(=O)O)s2)cc1OCc1ccc(Cl)cc1Cl [[2-({3-[(2,4-dichlorobenzyl)oxy]-4-methoxybenzylidene}hydrazono)-4-oxo-1,3-thiazolidin-5-yl]acetic acid]",14.7 µM
9,"CC[N+](C)(CC)CCCC(N=O)C(O)(c1ccccc1)c1ccccc1 (centres undefined) [diethyl-(5-hydroxy-4-hydroxyimino-5,5-diphenylpentyl)-methylammonium;iodide]",100 µM
